Measured values taken from the kinase profiling compilation of Christmann-Franck et al. (2016).

Experiments:
Experiment in all cases: radiometric filter-binding kinase assay, Kinaseprofiler
BTK (human) = BTK (human) (UniProt Q06187); conditions: compound 1.0 µM; ATP 200 µM
CDK1 CCNB1 (human) = CDK1 CCNB1 (human) (UniProt P06493+P14635); conditions: compound 1.0 µM; ATP 45 µM
CDK3 CCNE1 (human) = CDK3 CCNE1 (human) (UniProt Q00526+P24864); conditions: compound 1.0 µM; ATP 200 µM
CDK5 CDK5R1 p35 (human) = CDK5 CDK5R1 p35 (human) (UniProt Q00535+Q15078); conditions: compound 1.0 µM; ATP 15 µM
CHEK1 (human) = CHEK1 (human) (UniProt O14757); conditions: compound 1.0 µM; ATP 90 µM
CHEK2 (human) = CHEK2 (human) (UniProt O96017); conditions: compound 1.0 µM; ATP 70 µM
Chain of CHEK2 (human) (O96017 whole entry, looked up): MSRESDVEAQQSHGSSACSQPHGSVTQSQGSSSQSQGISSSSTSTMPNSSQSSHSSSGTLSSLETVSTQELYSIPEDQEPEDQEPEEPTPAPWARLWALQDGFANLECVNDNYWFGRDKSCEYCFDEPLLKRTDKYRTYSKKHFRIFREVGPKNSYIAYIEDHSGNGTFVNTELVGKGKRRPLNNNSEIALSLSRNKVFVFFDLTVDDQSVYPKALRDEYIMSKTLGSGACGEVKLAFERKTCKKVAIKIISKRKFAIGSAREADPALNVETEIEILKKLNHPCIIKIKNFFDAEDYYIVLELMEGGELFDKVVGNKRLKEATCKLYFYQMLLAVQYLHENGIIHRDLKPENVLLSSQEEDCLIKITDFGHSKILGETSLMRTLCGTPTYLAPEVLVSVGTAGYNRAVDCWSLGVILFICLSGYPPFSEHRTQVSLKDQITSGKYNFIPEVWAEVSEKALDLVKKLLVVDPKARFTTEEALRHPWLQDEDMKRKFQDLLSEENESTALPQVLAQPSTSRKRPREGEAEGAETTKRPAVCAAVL

DAPK3 (human) = DAPK3 (human) (UniProt O43293); conditions: compound 1.0 µM; ATP 15 µM
Chain of DAPK3 (human) (O43293 whole entry, looked up): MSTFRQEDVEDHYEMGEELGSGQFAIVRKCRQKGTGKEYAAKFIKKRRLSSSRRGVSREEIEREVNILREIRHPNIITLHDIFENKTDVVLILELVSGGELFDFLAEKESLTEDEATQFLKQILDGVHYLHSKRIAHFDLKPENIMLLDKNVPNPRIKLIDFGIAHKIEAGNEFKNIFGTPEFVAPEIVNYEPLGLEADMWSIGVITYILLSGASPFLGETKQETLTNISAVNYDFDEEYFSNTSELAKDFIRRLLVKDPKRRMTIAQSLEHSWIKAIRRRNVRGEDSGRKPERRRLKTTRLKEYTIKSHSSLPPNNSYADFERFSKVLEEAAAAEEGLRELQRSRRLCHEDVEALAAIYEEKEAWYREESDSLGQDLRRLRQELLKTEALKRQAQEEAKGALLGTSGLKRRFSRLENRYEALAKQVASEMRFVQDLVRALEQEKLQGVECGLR

DMPK (human) = DMPK (human) (UniProt Q09013); conditions: compound 1.0 µM; ATP 10 µM
[1] = tested on: EEF2K (human), O00418 [H23R]; conditions: compound 1.0 µM; ATP 15 µM
[2] = tested on: EGFR (human), P00533 [L858R]; conditions: compound 1.0 µM; ATP 10 µM
EPHA4 (human) = EPHA4 (human) (UniProt P54764); conditions: compound 1.0 µM; ATP 15 µM
FGFR1 (human) = FGFR1 (human) (UniProt P11362); conditions: compound 1.0 µM; ATP 200 µM
FGFR3 (human) = FGFR3 (human) (UniProt P22607); conditions: compound 1.0 µM; ATP 15 µM
FLT1 (human) = FLT1 (human) (UniProt P17948); conditions: compound 1.0 µM; ATP 200 µM
FLT3 (human) = FLT3 (human) (UniProt P36888); conditions: compound 1.0 µM; ATP 200 µM
[3] = tested on: FLT3 (human), P36888 [D835Y]; conditions: compound 1.0 µM; ATP 200 µM
FYN (human) = FYN (human) (UniProt P06241); conditions: compound 1.0 µM; ATP 70 µM
[4] = tested on: IRAK4 (human), Q9NWZ3 [A81V]; conditions: compound 1.0 µM; ATP 200 µM
Chain of IRAK4 (human), Q9NWZ3 [A81V] (Q9NWZ3 whole entry, looked up, stated change not applied): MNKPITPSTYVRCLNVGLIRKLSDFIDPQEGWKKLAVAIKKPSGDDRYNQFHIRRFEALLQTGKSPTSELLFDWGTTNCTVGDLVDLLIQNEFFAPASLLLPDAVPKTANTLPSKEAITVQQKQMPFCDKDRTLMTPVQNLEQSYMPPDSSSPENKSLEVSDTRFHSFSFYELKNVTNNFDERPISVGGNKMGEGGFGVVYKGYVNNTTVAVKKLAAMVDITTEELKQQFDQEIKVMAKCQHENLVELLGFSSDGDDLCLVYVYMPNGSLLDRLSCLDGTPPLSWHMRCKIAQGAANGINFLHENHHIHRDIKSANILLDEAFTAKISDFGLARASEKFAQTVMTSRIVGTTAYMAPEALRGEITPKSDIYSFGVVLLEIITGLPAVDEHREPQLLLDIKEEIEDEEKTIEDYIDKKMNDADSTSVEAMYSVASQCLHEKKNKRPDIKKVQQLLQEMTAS

[5] = molecular target: JAK3 JH1 catalytic (human) (UniProt P52333); conditions: compound 1.0 µM; ATP 10 µM
MAP2K4 (mouse) = conditions: compound 1.0 µM; accession and sequence are those of the human protein
MAPK11 (human) = MAPK11 (human) (UniProt Q15759); conditions: compound 1.0 µM; ATP 45 µM
Chain of MAPK11 (human) (Q15759 whole entry, looked up): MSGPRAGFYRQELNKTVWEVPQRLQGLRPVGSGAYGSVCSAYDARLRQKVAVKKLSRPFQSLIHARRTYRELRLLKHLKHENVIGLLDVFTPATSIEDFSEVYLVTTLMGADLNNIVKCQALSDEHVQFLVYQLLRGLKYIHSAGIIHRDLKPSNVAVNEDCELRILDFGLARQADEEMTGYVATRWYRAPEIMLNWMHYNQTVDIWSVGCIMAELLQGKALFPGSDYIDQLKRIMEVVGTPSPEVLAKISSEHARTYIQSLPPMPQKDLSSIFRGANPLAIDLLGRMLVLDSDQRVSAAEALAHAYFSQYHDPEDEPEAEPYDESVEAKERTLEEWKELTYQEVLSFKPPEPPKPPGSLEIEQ

MAPKAPK3 (human) = MAPKAPK3 (human) (UniProt Q16644); conditions: compound 1.0 µM; ATP 90 µM
[6] = tested on: MAPKAPK5 (human), Q8IW41 [R291E]; conditions: compound 1.0 µM; ATP 15 µM
[7] = tested on: MARK1 (human), Q9P0L2 [V16E/T20S]; conditions: compound 1.0 µM; ATP 10 µM
MYLK (human) = MYLK (human) (UniProt Q15746); conditions: compound 1.0 µM; ATP 70 µM
NEK2 (human) = NEK2 (human) (UniProt P51955); conditions: compound 1.0 µM; ATP 120 µM
PKN2 (human) = PKN2 (human) (UniProt Q16513); conditions: compound 1.0 µM; ATP 15 µM
PLK3 (human) = PLK3 (human) (UniProt Q9H4B4); conditions: compound 1.0 µM; ATP 70 µM
PRKCD (human) = PRKCD (human) (UniProt Q05655); conditions: compound 1.0 µM; ATP 15 µM
PRKCI (human) = PRKCI (human) (UniProt P41743); conditions: compound 1.0 µM; ATP 155 µM
PRKCQ (human) = PRKCQ (human) (UniProt Q04759); conditions: compound 1.0 µM; ATP 15 µM
Chain of PRKCQ (human) (Q04759 whole entry, looked up): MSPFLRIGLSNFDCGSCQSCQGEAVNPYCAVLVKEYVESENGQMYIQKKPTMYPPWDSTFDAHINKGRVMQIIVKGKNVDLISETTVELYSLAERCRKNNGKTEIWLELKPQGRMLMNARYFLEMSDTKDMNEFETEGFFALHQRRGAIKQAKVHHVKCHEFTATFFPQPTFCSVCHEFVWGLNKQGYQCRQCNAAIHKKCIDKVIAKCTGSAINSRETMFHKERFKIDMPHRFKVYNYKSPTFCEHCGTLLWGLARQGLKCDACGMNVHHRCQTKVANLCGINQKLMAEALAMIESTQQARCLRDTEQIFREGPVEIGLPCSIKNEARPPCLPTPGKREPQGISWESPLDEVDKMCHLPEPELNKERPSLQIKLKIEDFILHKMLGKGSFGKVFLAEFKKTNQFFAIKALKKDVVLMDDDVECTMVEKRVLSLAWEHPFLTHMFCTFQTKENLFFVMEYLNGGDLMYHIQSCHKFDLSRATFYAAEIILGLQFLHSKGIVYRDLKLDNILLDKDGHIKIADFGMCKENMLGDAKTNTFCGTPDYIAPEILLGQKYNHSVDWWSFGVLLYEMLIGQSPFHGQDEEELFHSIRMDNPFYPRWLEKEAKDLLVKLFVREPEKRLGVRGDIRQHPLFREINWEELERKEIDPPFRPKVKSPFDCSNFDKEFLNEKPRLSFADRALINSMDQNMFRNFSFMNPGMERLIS

PRKD2 (human) = PRKD2 (human) (UniProt Q9BZL6); conditions: compound 1.0 µM; ATP 155 µM
PRKX (human) = PRKX (human) (UniProt P51817); conditions: compound 1.0 µM; ATP 200 µM
SRPK1 (human) = SRPK1 (human) (UniProt Q96SB4); conditions: compound 1.0 µM; ATP 10 µM
Chain of SRPK1 (human) (Q96SB4 whole entry, looked up): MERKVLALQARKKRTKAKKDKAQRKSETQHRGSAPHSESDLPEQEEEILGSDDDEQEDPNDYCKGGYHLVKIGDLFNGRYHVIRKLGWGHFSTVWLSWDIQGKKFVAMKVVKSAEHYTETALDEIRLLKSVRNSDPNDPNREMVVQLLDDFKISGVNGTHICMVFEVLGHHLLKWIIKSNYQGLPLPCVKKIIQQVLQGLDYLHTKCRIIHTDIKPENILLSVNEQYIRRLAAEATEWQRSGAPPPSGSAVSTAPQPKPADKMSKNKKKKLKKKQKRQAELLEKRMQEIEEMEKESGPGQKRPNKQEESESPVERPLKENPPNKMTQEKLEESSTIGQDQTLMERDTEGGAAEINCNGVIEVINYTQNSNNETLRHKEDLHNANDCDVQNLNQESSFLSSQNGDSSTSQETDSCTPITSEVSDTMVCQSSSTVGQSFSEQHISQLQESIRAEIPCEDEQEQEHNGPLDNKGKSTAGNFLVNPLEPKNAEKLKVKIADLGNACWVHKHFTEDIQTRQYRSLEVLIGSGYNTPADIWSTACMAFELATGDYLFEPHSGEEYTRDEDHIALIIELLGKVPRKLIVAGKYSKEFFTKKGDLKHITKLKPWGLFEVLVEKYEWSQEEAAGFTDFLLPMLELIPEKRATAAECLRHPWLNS

STK24 (human) = STK24 (human) (UniProt Q9Y6E0); conditions: compound 1.0 µM; ATP 15 µM
TSSK1B (human) = TSSK1B (human) (UniProt Q9BXA7); conditions: compound 1.0 µM; ATP 15 µM
TSSK2 (human) = TSSK2 (human) (UniProt Q96PF2); conditions: compound 1.0 µM; ATP 15 µM
TYRO3 (human) = TYRO3 (human) (UniProt Q06418); conditions: compound 1.0 µM; ATP 45 µM

Chain of CDK3 CCNE1 (human) (P24864 whole entry, looked up): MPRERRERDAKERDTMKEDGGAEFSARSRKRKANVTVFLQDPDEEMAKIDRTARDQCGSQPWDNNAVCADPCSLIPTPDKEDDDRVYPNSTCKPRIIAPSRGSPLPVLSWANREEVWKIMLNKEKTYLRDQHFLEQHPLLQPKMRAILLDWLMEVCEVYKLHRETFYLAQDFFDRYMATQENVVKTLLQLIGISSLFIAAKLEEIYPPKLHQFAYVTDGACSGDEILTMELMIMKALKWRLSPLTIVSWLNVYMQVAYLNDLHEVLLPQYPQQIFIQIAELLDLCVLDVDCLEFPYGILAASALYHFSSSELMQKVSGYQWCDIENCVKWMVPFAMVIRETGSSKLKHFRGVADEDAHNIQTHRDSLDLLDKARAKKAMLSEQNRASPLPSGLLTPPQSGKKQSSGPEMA
Chain of CDK3 CCNE1 (human) (Q00526 whole entry, looked up): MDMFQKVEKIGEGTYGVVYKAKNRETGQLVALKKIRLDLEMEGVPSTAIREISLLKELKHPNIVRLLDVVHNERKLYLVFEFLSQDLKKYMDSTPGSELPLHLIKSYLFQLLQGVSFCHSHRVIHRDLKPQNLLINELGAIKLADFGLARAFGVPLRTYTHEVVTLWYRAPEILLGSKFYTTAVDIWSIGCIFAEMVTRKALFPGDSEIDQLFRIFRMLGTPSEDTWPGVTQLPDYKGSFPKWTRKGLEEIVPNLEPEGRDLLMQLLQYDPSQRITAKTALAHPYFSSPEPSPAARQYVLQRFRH
Chain of CDK1 CCNB1 (human) (P06493 whole entry, looked up): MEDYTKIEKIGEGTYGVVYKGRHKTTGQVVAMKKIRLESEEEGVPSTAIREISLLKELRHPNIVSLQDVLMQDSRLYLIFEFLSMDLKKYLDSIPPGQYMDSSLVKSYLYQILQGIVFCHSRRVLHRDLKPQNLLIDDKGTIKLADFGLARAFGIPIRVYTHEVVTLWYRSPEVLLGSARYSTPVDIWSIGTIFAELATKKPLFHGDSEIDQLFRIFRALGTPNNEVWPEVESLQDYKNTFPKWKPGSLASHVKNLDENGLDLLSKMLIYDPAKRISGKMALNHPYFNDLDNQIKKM
Chain of CDK1 CCNB1 (human) (P14635 whole entry, looked up): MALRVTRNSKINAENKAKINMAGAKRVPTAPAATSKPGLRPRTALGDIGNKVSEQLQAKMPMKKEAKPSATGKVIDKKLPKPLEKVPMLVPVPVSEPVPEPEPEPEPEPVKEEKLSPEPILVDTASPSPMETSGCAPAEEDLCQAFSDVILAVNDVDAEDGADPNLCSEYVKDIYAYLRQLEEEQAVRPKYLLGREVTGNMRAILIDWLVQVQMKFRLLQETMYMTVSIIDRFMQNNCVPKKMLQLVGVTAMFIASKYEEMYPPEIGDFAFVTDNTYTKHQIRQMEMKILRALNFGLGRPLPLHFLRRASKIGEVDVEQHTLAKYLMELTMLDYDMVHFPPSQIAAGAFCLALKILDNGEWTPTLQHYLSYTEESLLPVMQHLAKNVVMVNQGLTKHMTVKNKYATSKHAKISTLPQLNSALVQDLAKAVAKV

CN(C)S(=O)(=O)Nc1ccc2ccc3ncc(-c4cnn(C)c4)cc3c(=O)c2c1
residual activity (BTK (human)): 83% | residual activity (CDK1 CCNB1 (human)): 66% | residual activity (CDK3 CCNE1 (human)): 100% | residual activity (CDK5 CDK5R1 p35 (human)): 93% | residual activity (CHEK1 (human)): 98% | residual activity (CHEK2 (human)): 93% | residual activity (DAPK3 (human)): 87% | residual activity (DMPK (human)): 101% | residual activity [1]: 93% | residual activity [2]: 41% | residual activity (EPHA4 (human)): 103% | residual activity (FGFR1 (human)): 5% | residual activity (FGFR3 (human)): 4% | residual activity (FLT1 (human)): 5% | residual activity (FLT3 (human)): 26% | residual activity [3]: 2% | residual activity (FYN (human)): 64% | residual activity [4]: 14% | residual activity [5]: 81% | residual activity (MAP2K4 (mouse)): 87% | residual activity (MAPK11 (human)): 113% | residual activity (MAPKAPK3 (human)): 102% | residual activity [6]: 97% | residual activity [7]: 62% | residual activity (MYLK (human)): 61% | residual activity (NEK2 (human)): 65% | residual activity (PKN2 (human)): 92% | residual activity (PLK3 (human)): 105% | residual activity (PRKCD (human)): 92% | residual activity (PRKCI (human)): 108% | residual activity (PRKCQ (human)): 100% | residual activity (PRKD2 (human)): 109% | residual activity (PRKX (human)): -12% | residual activity (SRPK1 (human)): 102% | residual activity (STK24 (human)): 102% | residual activity (TSSK1B (human)): 89% | residual activity (TSSK2 (human)): 83% | residual activity (TYRO3 (human)): 97%
